Reference: patent publication US20120128630A1, “1-(6 MEMBERS AZO-HETEROCYCLIC)-PYRROLIN-2-ONE COMPOUNDS AS INHIBITORS OF HEPATITIS C NS5B POLYMERASE, THE PHARAMACEUTICAL COMPOSITION THEREOF AND THEIR THERAPEUTIC USE” (priority 2009, published 2012)
pEC50: −log10 of the molar value. Several values for one entry are separate records, joined by “and”; a condition that tells them apart may be missing. Identical values can stand only once.

Tests used:
[1] = target: T1, HCV NS5B genotype 1b (Hepatitis C virus genotype 1b, UniProt Q9WMX2); test: 3D-SCREEN assay (NS5B 3D-Screen platform, luciferase reporter gene); type: cell-based; conditions: EC50_3DS_NS5B
T1 construct: The protein was expressed with a 21 amino acid C-terminal deletion to remove transmembrane domain; expressed in transfected cells; host or cells: Huh-7
Procedure, shortened: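 Huh-7 cells transiently co-transfected with NS5BΔ21/Gal4-DBD, 3D-Sensor peptide I4/VP16 and firefly luciferase reporter. Compounds added 2 h after seeding, 1% DMSO final, 24 h incubation. Luciferase luminescence read; % inhibition relative to no-compound signal.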

[2] = test system: HCV replicon Luc Neo ET; test: Luc Neo ET Replicon assay; type: cell-based, Hepatitis C virus; conditions: Table 3, titled RdRp enzyme assay results, EC50_Replicon LucneoET, 72 hours with compound, luciferase
Method: Human Hepatoma Huh-7 cell line was maintained in DMEM/HAMF-12 supplemented with 10% SVF, 4 mM glutamine, […] Na pyruvate, 1% penistreptomycine. HCV replicon containing Huh-7 cell lines Huh-9.13 and Luc Neo ET (Reblikon) were maintained in DMEM supplemented with 10% SVF, 2 mM glutamine, and 1×NEAA, 100 U/ml penicillin, and 100 μg/ml streptomycine. Replicon cells were maintained in medium supplemented with 1 mg/ml G418 for replicon Huh-9.13 and 0.5 mg/ml for Luc Neo et replicon unless indicated otherwise. Huh-7 and HCV replicon cell lines were maintained at 37° C. and 5% CO2 in a humidified atmosphere. Cells were dissociated at sub confluence with trypsin EDTA 1×.
Replicon Luc Neo ET is a bicistronic expression constructs (Lohmann et al, 1999, Science 285, 110-113). In brief, the structural genes of the HCV genome were replaced by heterologous sequences; the gene encoding the neomycin phosphotransferase (NPT) and the internal ribosome entry site (IRES) of the encephalomyocarditis virus (EMCV). The bicistronic construct is therefore composed of the following elements: HCV-IRES nucleotides 1-389, the NPT gene, the EMCV-IRES directing translation of downstream HCV sequences from NS2 or NS3 up to the authentic 3′ end of the genome. HCV Polyprotein harbours the cell culture adaptive mutations E1202G, T1280I, K1846T. G418-resistance is only possible with cells containing high amounts of replicon.
Cells were dissociated the day before addition of compounds and seeded in 96 well-plates at a final concentration of 77 777.77 cells.ml^−1.well^−2 in 90 μl final volume of culture medium per well and were maintained at 37° C. and 5% CO2 in a humidified atmosphere for 24 hours. 10 μl of compounds to be tested were added 24 hours after seeding. Final concentration of DMSO was 1%. Cells were incubated in the presence of compounds for 72 hours after which expression of firefly luciferase reporter gene was quantified. Briefly, culture medium was removed and cells were lysed by addition of 100 μl of lysis buffer containing 125 mM Tris Phosphate ph 7.8, 10 mM EDTA, 5 mM DTT, 50% glycerol and 5% Triton. Plates were vortexed 10 min at 1300 rpm. Cell lysat was transferred in OpaqueWhite Assay 96 well Flat Bottom plates. 100 μl of luciferin solution 1× were added to each well. Luciferin solution contained 40 mM Tris Phosphate ph 7.8, 0.2 mM EDTA, 67 mM DTT, 2.14 mM MgCl2, 5.4 mM MgSO4, 4.7×10^−4 M luciferin, 5.3×10^−4 M ATP and 2.7×10^−4 M Acetyl co enzyme A. Luminescence was immediately measured with Berthold Microlumat Plus LB 96V luminometer with an integration of 0.5 sec Inhibition was calculated using the formula:
% inhibition=1−[(RLUsample−RLUbackground)/(RLUsignal−RLUbackground)]

[3] = Table 1, 3D-SCREEN assay results, Huh-7 cells, 24 hours with compound, firefly luciferase reporter
[4] = Table 2, titled Replicon assay results

Compound	pEC50 [1, 3]	pEC50 [2]	melting point	pEC50 ([2]; Hepatitis C virus, 72 h)	pEC50 [1, 4]
Cc1ccc(N2C(=O)C(O)=C(C(=O)c3ccc(C(C)C)cc3)C2c2ccc(C(C)C)cc2)cn1 (stereo not drawn) [Example 48, 3-hydroxy-4-(4-isopropyl-benzoyl)-5-(4-isopropyl-phenyl)-1-(6-methyl-pyridin-3-yl)-1,5-dihydro-pyrrol-2-one]	6.15	6.00	252 to 254 °C	–	–
CC(=O)OC1=C(C(=O)c2ccc(C(C)C)cc2)C(c2ccc(C(C)C)cc2)N(c2ccc(C)nn2)C1=O (stereo not drawn) [Example 56, Acetic acid 4-(4-isopropyl-benzoyl)-5-(4-isopropyl-phenyl)-1-(6-methyl-pyridazin-3-yl)-2-oxo-2,5-hydro-1H-pyrrol-3-yl ester]	6.30	–	215 °C	6.22	–
Cc1ccc(N2C(=O)C(O)=C(C(=O)c3ccc(C(C)C)cc3)C2c2ccc(OC(F)(F)F)cc2)nn1 (stereo not drawn) [Example 61, 3-hydroxy-4-(4-isopropyl-benzoyl)-1-(6-methyl-pyridazin-3-yl)-5-(4-trifluoromethoxy-phenyl)-1,5-dihydro-pyrrol-2-one]	7.15	–	258 to 260 °C and 262 to 265 °C	7.00	–
COc1ccc(C2C(C(=O)c3ccc(C(C)C)cc3)=C(O)C(=O)N2c2ccc(C)nn2)cc1 (stereo not drawn) [Example 62, 3-hydroxy-4-(4-isopropyl-benzoyl)-5-(4-methoxy-phenyl)-1-(6-methyl-pyridazin-3-yl)-1,5-dihydro-pyrrol-2-one]	6.10	–	263 to 267 °C	6.05	–
Cc1ccc(N2C(=O)C([O-])=C(C(=O)c3ccc(C(C)C)cc3)C2c2ccc(C(C)C)cc2)cn1.[Na+] (stereo not drawn) [Example 67, Sodium; 4-(4-isopropyl-benzoyl)-5-(4-isopropyl-phenyl)-1-(6-methyl-pyridin-3-yl)-2-oxo-2,5-dihydro-1H-pyrrol-3-olate]	5.52	> 5.00	215 °C	–	–
CC(=O)OC1=C(C(=O)c2ccc(C)cc2)C(c2ccc(OC(F)(F)F)cc2)N(c2ccc(C)nn2)C1=O (stereo not drawn) [Example 76, Acetic acid 4-(4-methyl-benzoyl)-1-(6-methyl-pyridazin-3-yl)-2-oxo-5-(4-trifluoromethoxy-phenyl)-2,5-dihydro-1H-pyrrol-3-yl ester]	6.22	–	165 to 166.5 °C	> 5.00	–
Cc1ccc(N2C(=O)C(O)=C(C(=O)c3ccc(C(C)C)cc3)C2c2ccc(OC(F)(F)F)cc2)cn1 (stereo not drawn) [Example 77, 3-hydroxy-4-(4-isopropyl-benzoyl)-1-(6-methyl-pyridin-3-yl)-5-(4-trifluoromethoxy-phenyl)-1,5-dihydro-pyrrol-2-one]	–	–	214 to 218 °C	> 5.00	> 6.00
Cc1ccc(N2C(=O)C(O)=C(C(=O)c3ccc(-c4ccccc4)cc3)C2c2ccc(OC(F)(F)F)cc2)nn1 (stereo not drawn) [Example 79, 4-(biphenyl-4-carbonyl)-3-hydroxy-1-(6-methyl-pyridazin-3-yl)-5-(4-trifluoromethoxy-phenyl)-1,5-dihydro-pyrrol-2-one]	6.30	–	226 to 232 °C	> 5.00	–
Cc1ccc(N2C(=O)C(O)=C(C(=O)c3ccc(N4CCOCC4)cc3)C2c2ccc(OC(F)(F)F)cc2)nn1 (stereo not drawn) [Example 80, 3-hydroxy-1-(6-methyl-pyridazin-3-yl)-4-(4-morpholin-4-yl-benzoyl)-5-(4-trifluoromethoxy-phenyl)-1,5-dihydro-pyrrol-2-one]	5.70	–	234 °C	> 5.00	–
Cc1ccc(N2C(=O)C(O)=C(C(=O)c3ccc(C(C)C)cc3)C2c2ccc(OC(F)F)cc2)nn1 (stereo not drawn) [Example 88, 5-(4-difluoromethoxy-phenyl)-3-hydroxy-4-(4-isopropyl-benzoyl)-1-(6-methyl-pyridazin-3-yl)-1,5-dihydro-pyrrol-2-one]	–	–	263 to 265 °C	> 6.00	> 6.00
Cc1ccc(N2C(=O)C(O)=C(C(=O)c3ccc(C(C)C)cc3)C2c2ccc(OC(C)C)cc2)nn1 (stereo not drawn) [Example 89, 3-hydroxy-5-(4-isopropoxy-phenyl)-4-(4-isopropyl-benzoyl)-1-(6-methyl-pyridazin-3-yl)-1,5-dihydro-pyrrol-2-one]	–	–	280 to 281 °C	> 5.00	> 5.00
Cc1ccc(N2C(=O)C(O)=C(C(=O)c3ccc(C(C)C)cc3)C2c2ccc(OC(C)(C)C)cc2)nn1 (stereo not drawn) [Example 90, 5-(4-tert-butoxyphenyl)-3-hydroxy-4-(4-isopropyl-benzoyl)-1-(6-methyl-pyridazin-3-yl)-1,5-dihydro-pyrrol-2-one]	–	–	276 to 277 °C	> 5.00	> 5.00
CCc1ccc(C(=O)C2=C(O)C(=O)N(c3ccc(C)nn3)C2c2ccc(OC(F)(F)F)cc2)cc1 (stereo not drawn) [Example 102, 4-(4-ethyl-benzoyl)-3-hydroxy-1-(6-methyl-pyridazin-3-yl)-5-(4-trifluoromethoxy-phenyl)-1,5-dihydro-pyrrol-2-one]	–	–	263 to 267 °C	> 6.00	> 6.00
CCOc1ccc(C2C(C(=O)c3ccc(C(C)C)cc3)=C(O)C(=O)N2c2ccc(C)nn2)cc1 (stereo not drawn) [Example 104, 5-(4-ethoxy-phenyl)-3-hydroxy-4-(4-isopropyl-benzoyl)-1-(6-methyl-pyridazin-3-yl)-1,5-dihydro-pyrrol-2-one]	–	–	279 °C	> 6.00	> 6.00
CCc1ccc(C2C(C(=O)c3ccc(C(C)C)cc3)=C(O)C(=O)N2c2ccc(C)nn2)cc1 (stereo not drawn) [Example 105, 5-(4-ethyl-phenyl)-3-hydroxy-4-(4-isopropyl-benzoyl)-1-(6-methyl-pyridazin-3-yl)-1,5-dihydro-pyrrol-2-one]	–	–	282 to 284 °C	> 6.00	> 6.00
CC(C)c1ccc(C(=O)C2=C(O)C(=O)N(c3ccc(Sc4ccc([N+](=O)[O-])cc4)nn3)C2c2ccc(OC(F)(F)F)cc2)cc1 (stereo not drawn) [Example 119, 3-hydroxy-4-(4-isopropyl-benzoyl)-1-[6-(4-nitro-phenylsulfanyl)-pyridazin-3-yl]-5-(4-trifluoromethoxy-phenyl)-1,5-dihydro-pyrrol-2-one]	–	–	194 to 209 °C	> 5.00	> 6.00
Cc1ccc(N2C(=O)C(O)=C(C(=O)c3ccc(C(C)C)cc3)C2c2ccc(OC3CC3)cc2)nn1 (stereo not drawn) [Example 120, 5-(4-cyclopropoxy-phenyl)-3-hydroxy-4-(4-isopropyl-benzoyl)-1-(6-methyl-pyridazin-3-yl)-1,5-dihydro-pyrrol-2-one]	–	–	285 to 288 °C	> 6.00	> 6.00
Cc1ccc(N2C(=O)C(O)=C(C(=O)c3ccc(C(C)(C)C)cc3)C2c2ccc(OC(F)(F)F)cc2)nn1 (stereo not drawn) [Example 123, 4-(4-tert-butyl-benzoyl)-3-hydroxy-1-(6-methyl-pyridazin-3-yl)-5-(4-trifluoromethoxy-phenyl)-1,5-dihydro-pyrrol-2-one]	–	–	262 to 265 °C	> 6.00	> 6.00
Cc1ccc(N2C(=O)C(O)=C(C(=O)c3ccc(C4CCCCC4)cc3)C2c2ccc(OC(F)(F)F)cc2)nn1 (stereo not drawn) [Example 125, 4-(4-cyclohexyl-benzoyl)-3-hydroxy-1-(6-methyl-pyridazin-3-yl)-5-(4-trifluoromethoxy-phenyl)-1,5-dihydro-pyrrol-2-one]	–	–	283 to 286 °C	> 5.00	> 5.00
